The series can be described thus: Human HepG2 cell viability assay in 384 well format. The following applies: HepG2 cells, read-out: Inhibition. The class given is toxicity, cell-based. Further details: dose 125 nL, time 70.5 hour; concentration not given beside the values.
As to `Cc1c(NC(=O)NCC(C)N2CCOCC2)cccc1OC(F)F` (stereo not drawn), the cytotoxicity at 70.5 h is -0.748%. The figure for `O=C(CC1CN(Cc2ccccc2)CCO1)NC1CCCC1` (stereo not drawn) is 11.6%; for `Cc1cc(C)n(C2CCCN(C(=O)c3cccc4[nH]ncc34)C2)n1` (stereo not drawn) it is -4.99%; for `Cc1nc(C)n(C2CCCN(C(=O)CCc3ccncc3)C2)n1` (stereo not drawn) it is -0.318%. In the case of `Cc1nc(C)n(C2CCCN(C(=O)CCCn3ccnc3)C2)n1` (stereo not drawn), the cytotoxicity at 70.5 h was 4.28%. Consider `O=C(NCCOc1ncc(Cl)cc1Cl)c1ccncc1F`, for which the cytotoxicity at 70.5 h came out at 0.0766%. Then `CC(Oc1ccccc1C(F)(F)F)C(=O)NCCC(=O)N(C)C` (stereo not drawn), with 0.999%; and `COc1c(C2CCCN2C(=O)c2ccc(Cl)o2)c(C)nn1C` (stereo not drawn), with -5.88%. The figure for `CNc1cc(N2CCCC2CNCc2ccc(Cl)o2)ncn1` (stereo not drawn) is 8.16%. Then `CCOC1CCC2(CCN(C(=O)c3csnn3)CC2)c2ccccc21` (stereo not drawn), with 36.5%; and `COc1ncccc1CN1C[C@@H]2CN(c3ncccn3)C[C@@H]2C1`, with 18.1%; and `CN1CC[C@]2(CN(CC3CC3)C[C@H]2c2ccccc2)C1=O`, with 23.4%.

Take `COc1cc(N2CCC3(CC2)CN(C)C(=O)CO3)ncn1`: the cytotoxicity at 70.5 h amounted to 16.1%. The figure for `CC(=O)N1CCC(c2nc3ccc(C)cn3n2)CC1` is -0.807%; for `O=C(c1ccc[nH]1)N1CCc2nnc(Cn3cccc3)n2CC1` it is -7.68%. Then `O=C(c1ccc[nH]1)N1CCc2nnc(Cn3cccn3)n2CC1`, with -2.61%; and `COc1cc(N2CCC3(CC2)CNC(=O)CO3)ncn1`, with -8.43%.

Take `COC[C@@H]1CCC[C@]12CN(S(=O)(=O)c1cn(C)cn1)CCO2`: the cytotoxicity at 70.5 h was -6.65%. For `O=C(Nc1ccccc1)N1C[C@H]2C[C@H](C(=O)N3CCOCC3)[C@@H](C1)O2`, the cytotoxicity at 70.5 h is -6.84%. As for `CCOC[C@@H]1CCC[C@]12CN(S(=O)(=O)c1cn(C)cn1)CCO2`, the cytotoxicity at 70.5 h is -5.13%. The figure for `CS(=O)(=O)N1CCC(c2nc3ccc(-c4cccc(F)c4)cn3n2)CC1` is -5.73%; for `CN(C)C(=O)N1CC(C(=O)NCC2CC2)C2(CCOCC2)C1` (stereo not drawn) it is 3.79%; for `CO[C@@H]1CO[C@@]2(CCCN(S(=O)(=O)c3ccccc3)C2)C1` it is -14.8%.

For `Cc1cccc(C(=O)N2Cc3ccccc3C3(CCN(C)CC3)C2)n1`, the cytotoxicity at 70.5 h worked out at 7.65%. `O=C(NCc1cncc2c1CCN(C1CCOC1)C2)c1ccco1` (stereo not drawn): the cytotoxicity at 70.5 h was -2.1%.

Consider `Cc1cccc(N2CCOCC3(C2)CN(c2cnn(C)c2)C(=O)CO3)n1` (stereo not drawn), for which the cytotoxicity at 70.5 h is 16.9%. The figure for `Cc1cccc(N2CCOCC3(C2)CN(c2ccoc2)C(=O)CO3)n1` (stereo not drawn) is 6.55%; for `O=C([C@H]1CCCO1)N1CCCC2(COCCN(c3ccccc3)C2)C1` (stereo partly drawn) it is -10.4%.

For `O=C1NCC[C@]12CN(CC1CCOCC1)C[C@H]2c1ccccc1`, the cytotoxicity at 70.5 h was -7.01%. Take `CCN(CC)Cc1cc(=O)n2c(n1)CN(S(=O)(=O)C1CC1)CCC2`: the cytotoxicity at 70.5 h is -7.27%. Take `c1coc(CN2CCO[C@H]3[C@H](OCC4CC4)CC[C@@H]32)c1`: the cytotoxicity at 70.5 h was -10.8%. As for `COCC1c2c(cnn2C)CCN1C(=O)c1cc(C)on1` (stereo not drawn), the cytotoxicity at 70.5 h was -0.669%.

As for `Cc1ccc(N2CC[C@@H]3[C@@H]2CCN3C(=O)Cc2ccccc2)nn1`, the cytotoxicity at 70.5 h came out at 5.36%. Take `CCCC(=O)Nc1ccc2c(c1)C1(CCOCC1)CN2CCOC`: the cytotoxicity at 70.5 h is 18.8%. In the case of `COCC(=O)N1CCC2(CC1)CC(COC)N(Cc1ccccn1)C2` (stereo not drawn), the cytotoxicity at 70.5 h is -4.33%.

Consider `CCC(=O)N1CC[C@H]2[C@H](C[C@@H](Cn3cccn3)N2c2nccs2)C1`, for which the cytotoxicity at 70.5 h was 8.28%.

On to `Cn1ccc(CN2CCCC23CCN(Cc2ccccc2F)CC3)n1`, for which the cytotoxicity at 70.5 h is -4.06%.

On to `Cc1ccc(N2CC[C@@H]3[C@@H]2CCN3Cc2ccsc2)nn1`, for which the cytotoxicity at 70.5 h was -0.146%.
